The source of these data is patent US11572373B2, “Maytansinoid-based drug delivery systems” (LADRX CORPORATION, priority 2017, dated 2023).

Marks after values point to notes of the source that are not given here.

The data set in a line: Stability and release kinetics of maytansinoid-HSA conjugates in buffer solution at pH 4.0 and pH 7.4. It is filed as physicochemical. The settings on record: maytansinoid-HSA conjugate, PBS pH 7.4, 37° C., measured at 200 μM. As for the experimental part: For preparing HSA conjugates of albumin-binding maytansinoids, HSA (200 μM: 361.8 μL, 1078 μM free Cys34; 100 μM: 180.9 μL, 1078 μM free Cys34) was diluted with PBS buffer (4 mM sodium phosphate, 150 mM NaCl, pH 7.4) (200 μM: 678.2 μL; 100 μM: 859.1 μL) and DMSO (200 μM: 130.0 μL; 100 μM: 195.0 μL) and incubated in a heating block at 37° C. for 30 minutes. The albumin-binding maytansinoid was added as a 2 mM stock solution in DMSO (200 μM: 130.0 μL; 100 μM: 65.0 μL) to the preincubated HSA sample to produce a 200 μM or 100 μM solution of maytansinoid-prodrug and 300 μM or 150 μM of free Cys34. The mixture having a pH of 7.4 was allowed to react for 10 min at 37° C. and was then analyzed hourly for 24 hours by RP-HPLC (Phenomenex Aeris WP XB-C18, 3.6 μm, 250×4.6 mm).
For studying the release kinetics at pH 4.0 the mixture was acidified with a mixture of 50 mM sodium acetate buffer pH 3.0 (200 μM: 119.3 μL; 100 μM: 125.2 μL) and 1 M HCl (200 μM: 12.7 μL; 100 μM: 6.8 μL) to reach pH 4.0. The mixture was subsequently analyzed hourly for 24 hours by RP-HPLC (Phenomenex Aeris WP XB-C18, 3.6 μm, 250×4.6 mm).
The following RP-HPLC conditions were used: Phenomenex Aeris WP XB-C18 3.6 μm, 250×4.6 mm; eluent A (100% 20 mM Tris buffer pH 8.0) and eluent B (90:10, MeCN: water) eluting with a gradient of eluent B (25% 0-0.5 min, 25-35% 0.5-2.5 min, 35-85% 2.5-16 min, 85-95% 16-17 min, 95% 17-20 min, 95-25% 20-25 min, 25% 25-30 min, flow rate 1.0 mL/min). Column oven temperature 37° C.; autosampler temperature 37° C.; 20 μL of injection volume.
To quantify the percentage of free drug released, standard curves of the free maytansinoids were prepared at different concentrations (200 μM, 100 μM, 50 μM, 25 μM and 12.5 μM). The area under the curve (AUC) was determined at 250 nm.

Turning to `COc1cc2cc(c1Cl)N(C)C(=O)C[C@H](OC(=O)CCc1ccc(/C(C)=N/NC(=O)c3ccc(NC(=O)CCCCCN4C(=O)C=CC4=O)cc3S(=O)(=O)O)cc1)[C@]1(C)O[C@H]1[C@H](C)[C@@H]1C[C@@](O)(NC(=O)O1)[C@H](OC)/C=C/C=C(\C)C2` [Compound 41], the “free maytansinoid after 24 h at pH 7.4” value was 4.6%*. Next, `COc1cc2cc(c1Cl)N(C)C(=O)C[C@H](OC(=O)COc1ccc(/C(C)=N/NC(=O)c3ccc(NC(=O)CCCCCN4C(=O)C=CC4=O)cc3S(=O)(=O)O)cc1)[C@]1(C)O[C@H]1[C@H](C)[C@@H]1C[C@@](O)(NC(=O)O1)[C@H](OC)/C=C/C=C(\C)C2` [Compound 36]: 4.7%*. For `COc1cc2cc(c1Cl)N(C)C(=O)C[C@H](OC(=O)Cc1ccc(/C(C)=N/NC(=O)c3ccc(NC(=O)CCNC(=O)[C@H](CS(=O)(=O)O)NC(=O)CCCCCN4C(=O)C=CC4=O)cc3[N+](=O)[O-])cc1)[C@]1(C)O[C@H]1[C@H](C)[C@@H]1C[C@@](O)(NC(=O)O1)[C@H](OC)/C=C/C=C(\C)C2` [Compound 33], the “free maytansinoid after 24 h at pH 7.4” value stood at 6.5%*. Next, `COc1cc2cc(c1Cl)N(C)C(=O)C[C@H](OC(=O)CSc1ccc(/C(C)=N/NC(=O)c3ccc(NC(=O)CCCCCN4C(=O)C=CC4=O)cc3S(=O)(=O)O)cc1C)[C@]1(C)O[C@H]1[C@H](C)[C@@H]1C[C@@](O)(NC(=O)O1)[C@H](OC)/C=C/C=C(\C)C2` [Compound 39]: 9.6%*; `COc1cc2cc(c1Cl)N(C)C(=O)C[C@H](OC(=O)CSc1ccc(/C(C)=N/NC(=O)c3ccc(NC(=O)CCCCCN4C(=O)C=CC4=O)cc3S(=O)(=O)O)cc1C(F)(F)F)[C@]1(C)O[C@H]1[C@H](C)[C@@H]1C[C@@](O)(NC(=O)O1)[C@H](OC)/C=C/C=C(\C)C2` [Compound 38]: 4.9%*.
